According to article PMC7751407, “Novel oxindole/benzofuran hybrids as potential dual CDK2/GSK-3β inhibitors targeting breast cancer: design, synthesis, biological evaluation, and in silico studies” (Journal of Enzyme Inhibition and Medicinal Chemistry, 2020):

Experiments:
MCF-7 = experiment: MTT anti-proliferative assay, MCF-7 breast cancer cells; assay type: cell-based; settings: Homo sapiens, MCF7, 48 h exposure, mean ± SD of three separate experiments
Protocol: (§1) 1. Anti-proliferative activity toward human breast cell lines
(§2) The two examined human breast cancer cell lines (T-47D and MCF-7) have been obtained from American Type Culture Collection (ATCC). Cells lines were maintained as monolayers in Dulbecco’s Modified Eagle’s Medium (DMEM) supplemented with 10% FBS, 2 mM L-glutamine, 100 U/ml penicillin and 100µg/ml streptomycin sulfate. Cells were sub-cultured with trypsine /EDTA solution, counted with haemocytometer and plated onto 96-well plates (5000 cells/well) and left overnight to form a semi-confluent monolayer. Cell monolayers were treated in quadrates with vehicle (DMSO, 0.1% v/v), test samples or Adriamycin as positive control for an exposure time of 48 h. At the end of exposure, MTT solution in PBS (5 mg/ml) was then added to all well including no cell blank and left to incubate for 90 min. The formation of formazan crystals were visually confirmed using phase contract microscopy. DMSO (100 µl/well) was added to dissolve the formazan crystals with shaking for 10 min after which the absorbance was read at 590 nm against no cell blanks on a FLuo Star Optima microplate reader (BMG technologies, Germany).
(§3) Cell proliferation was calculated comparing the OD values of the DMSO control wells and those of the samples represented as % proliferation to the control. Dose-response experiment was performed on samples producing > or =50% loss of cell proliferation using five serial 2-fold […]
(§4) IC50 values (concentration of sample causing 50% loss of cell proliferation of the vehicle control) were calculated using non-linear regression curve fitting of the dose response plots on GraphPad Prism V.6.0 software. […]

T-47D = experiment: MTT anti-proliferative assay, T-47D breast cancer cells; assay type: cell-based; settings: Homo sapiens, T47D, 48 h exposure, mean ± SD of three separate experiments
Protocol: as §1, §2, §3, §4

CDK2 = target: T1, CDK2 (Homo sapiens, UniProt P24941); experiment: CDK2 kinase inhibition (CDK2 Kinase Enzyme System, Promega); assay type: biochemical; settings: mean ± SD of three separate experiments
T1 construct: purchased Promega, Milan, Italy V2971
Protocol: (§5) 2. CDK2/GSK-3β Kinase Inhibitory Activities
(§6) The CDK2 and GSK-3β inhibitory activities were determined for hybrids 5a-g using the CDK2
(§7) Kinase Enzyme System (catalog No. V2971) (Promega, Milan, Italy), and GSK3β Assay Kit

GSK-3β = target: T2, GSK-3β (Homo sapiens, UniProt P49841); experiment: GSK-3β kinase inhibition (GSK3β Assay Kit, BPS Biosciences); assay type: biochemical; settings: mean ± SD of three separate experiments
T2 construct: purchased BPS Biosciences, San Diego, CA, USA 79700
T2 sequence (P49841 whole entry): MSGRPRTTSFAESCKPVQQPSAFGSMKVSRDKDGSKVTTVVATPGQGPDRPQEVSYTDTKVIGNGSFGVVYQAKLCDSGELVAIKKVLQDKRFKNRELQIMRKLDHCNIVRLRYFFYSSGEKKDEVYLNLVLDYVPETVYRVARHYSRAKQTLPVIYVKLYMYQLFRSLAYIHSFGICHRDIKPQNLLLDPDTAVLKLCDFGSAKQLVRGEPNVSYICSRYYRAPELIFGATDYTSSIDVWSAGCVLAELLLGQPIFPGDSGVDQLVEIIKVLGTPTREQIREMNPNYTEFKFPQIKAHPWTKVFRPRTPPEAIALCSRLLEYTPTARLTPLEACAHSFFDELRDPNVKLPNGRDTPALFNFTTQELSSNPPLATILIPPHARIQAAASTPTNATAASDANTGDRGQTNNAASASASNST
Protocol: as §5, §6, §7

MCF-10A = experiment: MTT cytotoxicity towards non-tumorigenic breast cells MCF-10A; assay type: cell-based, human; settings: for IC50: Homo sapiens, MCF-10A, MTT assay, non-tumorigenic breast cell line; for Mean tumour selectivity index (S.I.): IC50 for MCF-10A/IC50 average for (MCF-7 and T-47D)
Text: In order to investigate their selectivity on cancer cells, hybrids 5d, 5e and 5f, endowed with dual growth inhibitory action against MCF-7 and T-47D cells, were assesses for their cytotoxic action towards the non-tumorigenic breast cells (MCF-10A), via the MTT assay. The obtained IC50s and the calculated mean tumour selectivity index (S.I.); IC50 for MCF-10A/IC50 average for (MCF-7 and T-47D) have been presented in Table 5.
as §1, §2
Cell proliferation was calculated comparing the OD values of the DMSO control wells and those of the samples represented as % proliferation to the control. Dose-response experiment was performed on samples producing > or =50% loss of cell proliferation using five serial 2-fold dilutions (50, 25, 12.5, 6.25 and 3.125 µM) of the sample. IC50 values (concentration of sample causing 50% loss of cell proliferation of the vehicle control) were calculated using non-linear regression curve fitting of the dose response plots on GraphPad Prism V.6.0 software. […]

MCF-7 cells [1] = experiment: Cell cycle analysis by flow cytometry (PI stain) in MCF-7 cells; assay type: cell-based, human; settings: 24 h, at IC50 concentration; for %Sub-G1: control 1.29; for %G2/M: control 11.3; for %S: control 33.82; for %G0-G1: control 53.59
Protocol: Compounds showing promising antiproliferative as well as kinase inhibitory activity 5d, 5e and 5f were further investigated for their influence on the cell cycle progression by flow cytometry analysis using propidium iodide (PI) stain. Cell cycle parameters were compared for the breast cancer MCF-7 cells with DMSO as control and after treatment with the compounds of interest and incubation for 24 h, and the results were presented in Figure 5 and Table 3. […]
concentration), and then cells were washed twice with ice-cold phosphate buffered saline (PBS).
Subsequently, the treated cells were collected by centrifugation, fixed in ice-cold 70% (v/v) ethanol, washed with PBS, re-suspended with 100 μg/mL RNase, stained with 40 μg/mL PI, and analyzed by flow cytometry using FACS Calibur (Becton Dickinson, BD, Franklin Lakes, NJ,

MCF-7 cells [2] = experiment: Annexin V-FITC/PI dual staining apoptosis assay in MCF-7 cells; assay type: cell-based, human; settings: at IC50 concentration; for Late Apoptosis (Upper Right %): control 0.19; for Early Apoptosis (Lower Right %): control 0.63; for Total apoptosis (L.R % + U.R %): control 0.82; for Necrosis: upper left quadrant, control 0.49
Protocol: To investigate further the effect of the promising compounds 5d, 5e, and 5f on cell apoptosis, Annexin V-FITC/propidium iodide dual staining assay was performed according to the reported method. The morphological markers of apoptosis in the breast cancer MCF-7 cell line were examined before and after treatment with the compounds of interest. Apoptosis assay depends on the translocation of the phosphatidylserine (PS) phospholipid to the cell surface in cells undergoing apoptosis which can be easily detected by staining with the fluorescent conjugate of annexin V followed by flow cytometry analysis. Simultaneously, MCF-7 cells were stained with propidium iodide (PI) which could enter cells with damaged plasma membranes only. This enables the discrimination between early apoptotic cells (positive for PS, but negative for PI) from late apoptotic and necrotic cells (positive for both PS and PI). […]
4. Annexin V-FITC Apoptosis Assay
Phosphatidylserine externalization was assayed using Annexin V-FITC/PI apoptosis detection kit (BD Biosciences, USA) according to the manufacturer’s instructions. Breast cancer MCF-7 cells were cultured to a monolayer then treated with hybrids (5d, 5e and 5f) at their IC50 concentration. Briefly, cells were then harvested via trypsinization, and rinsed twice in PBS followed by binding buffer. Moreover, cells were re-suspended in 100 μL of binding buffer with the addition of 1 μL of FITC-Annexin V followed by an incubation period of 30 min at 4 °C. Cells were then rinsed in binding buffer and resuspended in 150 μL of binding buffer with the addition of 1 μL of DAPI (1 μg/μL in PBS). Cells were then analyzed using the flow cytometer BD FACS Canto II and the results were interpreted with FlowJo7.6.4 software (Tree Star, Ashland, OR,

Compound | IC50 (MCF-7) [µM] | IC50 (T-47D) [µM] | IC50 (CDK2) [µM] | IC50 (GSK-3β) [µM] | melting point [°C] | other results
O=C1Nc2ccccc2C1=NNC(=O)c1cc2cc(Br)ccc2o1 [5a, 5-Bromo-N'-(2-oxoindolin-3-ylidene)benzofuran-2-carbohydrazide] | 5.47 ± 0.16 | 9.67 ± 0.31 | 0.141 ± 0.0077 | 0.137 ± 0.0075 | > 300 | 
O=C1Nc2ccc(F)cc2C1=NNC(=O)c1cc2cc(Br)ccc2o1 [5b, 5-Bromo-N'-(5-fluoro-2-oxoindolin-3-ylidene)benzofuran-2-carbohydrazide] | 12.9 ± 0.38 | 1.27 ± 0.04 | 0.0525 ± 0.0029 | 0.212 ± 0.012 | > 300 | 
O=C1Nc2ccc(Cl)cc2C1=NNC(=O)c1cc2cc(Br)ccc2o1 [5c, 5-Bromo-N'-(5-chloro-2-oxoindolin-3-ylidene)benzofuran-2-carbohydrazide] | 12.5 ± 0.37 | 6.03 ± 0.19 | 0.0854 ± 0.0046 | 0.102 ± 0.0056 | > 300 | 
O=C1Nc2ccc(Br)cc2C1=NNC(=O)c1cc2cc(Br)ccc2o1 [5d, 5-Bromo-N'-(5-bromo-2-oxoindolin-3-ylidene)benzofuran-2-carbohydrazide] | 3.41 ± 0.1 | 3.82 ± 0.12 | 0.0378 ± 0.0021 | 0.0321 ± 0.0017 | > 300 | IC50 (MCF-10A): 21.7 ± 1.05 µM; Mean tumour selectivity index (S.I.) (MCF-10A): 6.0; %Sub-G1 (MCF-7 cells [1]): 13.27%; %G2/M (MCF-7 cells [1]): 30.26%; %S (MCF-7 cells [1]): 22.5%; %G0-G1 (MCF-7 cells [1]): 33.97%; Late Apoptosis (Upper Right %) (MCF-7 cells [2]): 10.14%; Early Apoptosis (Lower Right %) (MCF-7 cells [2]): 3.61%; Total apoptosis (L.R % + U.R %) (MCF-7 cells [2]): 13.75%; Necrosis (MCF-7 cells [2]): 1.56%
Cc1ccc2c(c1)C(=NNC(=O)c1cc3cc(Br)ccc3o1)C(=O)N2 [5e, 5-Bromo-N'-(5-methyl-2-oxoindolin-3-ylidene)benzofuran-2-carbohydrazide] | 3.45 ± 0.1 | 4.53 ± 0.14 | 0.177 ± 0.0096 | 0.0808 ± 0.0044 | > 300 | IC50 (MCF-10A): 23.6 ± 0.86 µM; Mean tumour selectivity index (S.I.) (MCF-10A): 5.9; %Sub-G1 (MCF-7 cells [1]): 17.73%; %G2/M (MCF-7 cells [1]): 29.21%; %S (MCF-7 cells [1]): 23.21%; %G0-G1 (MCF-7 cells [1]): 29.85%; Late Apoptosis (Upper Right %) (MCF-7 cells [2]): 15.08%; Early Apoptosis (Lower Right %) (MCF-7 cells [2]): 4.66%; Total apoptosis (L.R % + U.R %) (MCF-7 cells [2]): 19.74%; Necrosis (MCF-7 cells [2]): 1.81%
Cc1cc(C)c2c(c1)C(=NNC(=O)c1cc3cc(Br)ccc3o1)C(=O)N2 [5g, 5-Bromo-N'-(5,7-dimethyl-2-oxoindolin-3-ylidene)benzofuran-2-carbohydrazide] | 12 ± 0.35 | 6.65 ± 0.21 | 0.105 ± 0.0057 | 0.0755 ± 0.0041 | > 300 | 
CN1C(=O)C(=NNC(=O)c2cc3cc(Br)ccc3o2)c2ccccc21 [7a, 5-Bromo-N'-(1-methyl-2-oxoindolin-3-ylidene)benzofuran-2-carbohydrazide] | 10.4 ± 1.01 | 11.8 ± 1.05 |  |  | 260 to 262 | 
C=CCN1C(=O)C(=NNC(=O)c2cc3cc(Br)ccc3o2)c2ccccc21 [7b, N'-(1-Allyl-2-oxoindolin-3-ylidene)-5-bromobenzofuran-2-carbohydrazide] | 2.64 ± 0.07 | 12.2 ± 0.4 |  |  | 207 to 209 | 
CC(C)CN1C(=O)C(=NNC(=O)c2cc3cc(Br)ccc3o2)c2ccccc21 [7c, 5-Bromo-N'-(1-isobutyl-2-oxoindolin-3-ylidene)benzofuran-2-carbohydrazide] | 37 ± 1.87 | 43.3 ± 2.39 |  |  | 216 to 218 | 
CCOC(=O)CN1C(=O)C(=NNC(=O)c2cc3cc(Br)ccc3o2)c2ccccc21 [7d, Ethyl-2–(3-(2–(5-bromobenzofuran-2-carbonyl)hydrazono)-2-oxoindolin-1-yl)acetate] | 7.48 ± 0.22 | 19 ± 0.62 |  |  | 215 to 216 | 
O=C(NN=C1C(=O)N(Cc2ccccc2)c2ccccc21)c1cc2cc(Br)ccc2o1 [7e, N'-(1-Benzyl-2-oxoindolin-3-ylidene)-5-bromobenzofuran-2-carbohydrazide] | 8.33 ± 0.24 | 11.8 ± 0.38 |  |  | 248 to 250 | 
O=C(NN=C1C(=O)N(CCc2ccccc2)c2ccccc21)c1cc2cc(Br)ccc2o1 [7f, 5-Bromo-N'-(2-oxo-1-phenethylindolin-3-ylidene)benzofuran-2-carbohydrazide] | 24.7 ± 0.72 | 38.7 ± 1.26 |  |  | 239 to 241 | 
CC(C)CN1C(=O)C(=NNC(=O)c2cc3cc(Br)ccc3o2)c2cc(Br)ccc21 [7g, 5-Bromo-N'-(5-bromo-1-isobutyl-2-oxoindolin-3-ylidene)benzofuran-2-carbohydrazide] | 24.8 ± 0.73 | 9.67 ± 0.31 |  |  | 244 to 246 | 
O=C(NN=C1C(=O)N(Cc2ccccc2)c2ccc(Br)cc21)c1cc2cc(Br)ccc2o1 [7h, N'-(1-Benzyl-5-bromo-2-oxoindolin-3-ylidene)-5-bromobenzofuran-2-carbohydrazide] | 4.32 ± 0.12 | 1.72 ± 0.04 |  |  | 236 to 237 | 
CC(C)CN1C(=O)C(=NNC(=O)Nc2cc3cc(Br)ccc3o2)c2ccccc21 [13a, N-(5-Bromobenzofuran-2-yl)-2–(1-isobutyl-2-oxoindolin-3-ylidene)hydrazine-1-carboxamide] | 18.2 ± 0.53 | 3.22 ± 0.1 |  |  | 208 to 210 | 
O=C(NN=C1C(=O)N(Cc2ccccc2)c2ccccc21)Nc1cc2cc(Br)ccc2o1 [13b, 2–(1-Benzyl-2-oxoindolin-3-ylidene)-N-(5-bromobenzofuran-2-yl)hydrazine-1-carboxamide] | 5.7 ± 0.16 | 10.9 ± 0.35 |  |  | 217 to 219 | 
